Measured values reported in patent US7759313B2, “Induction method for cell differentiation” (Obschetstvo S Ogranichennoi Otvetstvennostiyu …, priority 2002, dated 2010).
Values joined by “and” are separate entries in the source; they are usually repeats but may differ in a detail not shown here. Equal entries are not always repeated. Where two headings read alike, the source gives them in different places.

How the values were obtained:
human melanoma = assay: Number of cells with melanin in inoculated human melanoma (Goryaev's chamber); type: in vivo; settings: 4.5 mg/kg p.o. daily for 3 weeks
Method: Mice with subcutaneously inoculated human melanoma as described in Example 1 were daily p.o. dosed with Dicarbamine at a higher single dose (4.5 mg/kg for 3 weeks from the moment of the tumor transplantation).
Animals were sacrificed three weeks after the tumor transplantation. By the time of sacrifice, the volume of the tumors was on average 150 mm^3. Following sacrifice, the tumors were excised from the mice and disintegrated with Versen solution, and the cell fraction containing cells with pigment was isolated. The number of cells with pigment was calculated in the Goryaev's chamber using light microscopy.

human M-6 melanoma = assay: Human M-6 melanoma growth dynamics, Dicarbamine combined with chemotherapy; type: in vivo
Method: The study was conducted according to the technique described in Example 3. Dicarbamine was administered daily p.o. at the single dose 4.5 mg/kg for 3 weeks from the moment of tumor appearance (from day 15 to day 36). In the groups of combined treatment Dicarbamine was also administered daily at the single dose 4.5 mg/kg for 3 weeks (days 15-36) in combination with a single administration of anti-tumor cytostatic agents Cysplatin at dose 6 mg/kg i.v. (day 25) and Aranoza at dose 40 mg/kg i.p. (day 27). Cytostatic therapy with was commenced when the average tumor volume reached 200±62 mm^3. At days 18, 25, 33, 39, 46 and 53 from the transplantation tumor volumes were measured and the value Vt/Vt−1 was calculated and expressed as a percentage.

human melanoma Mel-6 = assay: Inoculated human melanoma Mel-6 growth dynamics in nude mice; type: in vivo
Method: The study was conducted on 10-12 week old thymus free “nude” female Balb/C mice weighting 20-22 grams (breeding of the RCRC named after N. N. Blokhin of the RAMS). The human melanoma strain Mel-6 earlier obtained from primary clinical material was taken from the bank of tumor strains of the RCRC of the RAMS for transplantation to thymus free mice.
Dicarbamine at the single doses 1.5 mg/kg and 4.5 mg/kg was p.o. administered daily to two mice groups for 3 weeks from the moment of the tumor development (from day 15 to day 36 from the tumor transplantation).
Measurement of the tumor was done at days 18, 25, 33, 39, 46 and 53 from the transplantation. The effect of Dicarbamine was assessed on the basis of the tumor growth dynamics for 8 weeks in multiple measurements of tumor volumes “V” according to the formula: […]
wherein L is length in mm, s is width in mm; and h is height in mm.
The ratio between volumes of tumors Vt/Vt−1 expressed as a percentage was then calculated and statistically processed according to the Student's method to calculate statistically significant difference.

[1] = tested on: hematopoietic cells of the bone marrow; assay: Electronic microscopy of bone marrow of ovarian cancer patients during chemotherapy; type: in vivo, human; settings: Cyclophosphane 600 mg/m^2 + Carboplatin 400 mg/m^2 along with Dicarbamine 100 mg
Method: The patients were divided into two equal groups: group I—patients who received the chemotherapy alone and group II—patients who received the chemotherapy along with Dicarbamine administration. […] The average chemotherapy course of one patient included 6 courses without Dicarbamine and 5.7 courses with Dicarbamine. In group II patients received the chemotherapy along with Dicarbamine dosing at a single dose 100 mg beginning 5 days before the first course and then until the beginning of next course at the same dose. […] Puncture biopsy of the bone marrow and peripheral blood for electronic microscopy were taken from patients prior to the chemotherapy and at the end of treatment course with Dicarbamine or without it. Fresh bone marrow puncture biopsies were placed on a slide plate and stirred many times with a stirring rod until small dense fragments were obtained. […] Semi-thin and ultra-thin slices were prepared on the LKB-III ultratome (Sweden). The semi-thin slices were stained with Methylene or Toluidine blue, ultra-thin slices were stained with an aqueous solution of uranyl acetate and lead citrate.

[2] = type: in vivo, mice
Excerpt: Two groups of mice are used.

O=C(O)CCCC(=O)NCCc1c[nH]cn1 [Dicarbamine]
increase of number of cells synthesizing melanin vs control (human melanoma): 3 fold | Number of cells with melanin (human melanoma; individual tumors 1-7): 95 (2×) and 110 and 130 and 106 and 111 (2×) | Vt/Vt−1, M ± m (human M-6 melanoma; Dicarbamine 4.5 mg/kg p.o. days 15-36 + Cysplatin 6 mg/kg i.v. + Aranoza 40 mg/kg i.p., 25 Day): 182.0±60.0% and 182.0 + 60.0** % | Vt/Vt−1, M ± m (human M-6 melanoma; Dicarbamine + Cysplatin + Aranoza, 33 Day): 191.0 + 71.0% | Vt/Vt−1, M ± m (human M-6 melanoma; Dicarbamine + Cysplatin + Aranoza, 39 Day): 24.5 + 17.4% | Vt/Vt−1, M ± m (human M-6 melanoma; Dicarbamine + Cysplatin + Aranoza, 46 Day): 28.7 + 9.8% | Vt/Vt−1, M ± m (human M-6 melanoma; Dicarbamine + Cysplatin + Aranoza, 53 Day): 8.0 + 30.6% | Vt/Vt−1, M ± m (human M-6 melanoma; Dicarbamine alone 4.5/94.5 mg/kg p.o. days 15-36, 25 Day): 166.0±93.0% | Vt/Vt−1, M ± m (human M-6 melanoma; Dicarbamine alone, 33 Day): 276.0 ± 104.0% | Vt/Vt−1, M ± m (human M-6 melanoma; Dicarbamine alone, 39 Day): 39.8 ± 27.3% | Vt/Vt−1, M ± m (human M-6 melanoma; Dicarbamine alone, 46 Day): 19.6 ± 17.5% | Vt/Vt−1, M ± m (human M-6 melanoma; Dicarbamine alone, 53 Day): 4.2 + 22.5% | V (tumor volume) M + m (human melanoma Mel-6; 1.5 mg/kg p.o. daily days 15-36, 18 day after inoculation): 21.8 + 12.8 | percent change in tumor volume Vt/Vt−1 (human melanoma Mel-6; 1.5 mg/kg, 18 day): 100% | V (tumor volume) M + m (human melanoma Mel-6; 1.5 mg/kg, 25 day): 77.5 + 46.4 | percent change in tumor volume Vt/Vt−1 (human melanoma Mel-6; 1.5 mg/kg, 25 day): 302.0 ± 186.0% | V (tumor volume) M + m (human melanoma Mel-6; 1.5 mg/kg, 33 day): 342.0 + 142.0 | percent change in tumor volume Vt/Vt−1 (human melanoma Mel-6; 1.5 mg/kg, 33 day): 428.0 ± 313.1% | V (tumor volume) M + m (human melanoma Mel-6; 1.5 mg/kg, 39 day): 435.0 + 187.0 | percent change in tumor volume Vt/Vt−1 (human melanoma Mel-6; 1.5 mg/kg, 39 day): 23.2 ± 22.1% | V (tumor volume) M + m (human melanoma Mel-6; 1.5 mg/kg, 46 day): 662.0 + 417.0 | percent change in tumor volume Vt/Vt−1 (human melanoma Mel-6; 1.5 mg/kg, 46 day): 23.9 + 31.0% | V (tumor volume) M + m (human melanoma Mel-6; 1.5 mg/kg, 53 day): 783.0 + 423.0 | percent change in tumor volume Vt/Vt−1 (human melanoma Mel-6; 1.5 mg/kg, 53 day): 18.6 + 54.0% | V (tumor volume) M + m (human melanoma Mel-6; 4.5 mg/kg p.o. daily days 15-36, 18 day): 91.9 + 54.4 | percent change in tumor volume Vt/Vt−1 (human melanoma Mel-6; 4.5 mg/kg, 18 day): 100% | V (tumor volume) M + m (human melanoma Mel-6; 4.5 mg/kg, 25 day): 266.0 + 198.0 | percent change in tumor volume Vt/Vt−1 (human melanoma Mel-6; 4.5 mg/kg, 25 day): 166.0±93.0% | V (tumor volume) M + m (human melanoma Mel-6; 4.5 mg/kg, 33 day): 852.0 + 495.0 | percent change in tumor volume Vt/Vt−1 (human melanoma Mel-6; 4.5 mg/kg, 33 day): 276.0 ± 104.0% | V (tumor volume) M + m (human melanoma Mel-6; 4.5 mg/kg, 39 day): 1129.0 + 600.0 | percent change in tumor volume Vt/Vt−1 (human melanoma Mel-6; 4.5 mg/kg, 39 day): 39.8 ± 27.3% | V (tumor volume) M + m (human melanoma Mel-6; 4.5 mg/kg, 46 day): 1354.0 + 735.0 | percent change in tumor volume Vt/Vt−1 (human melanoma Mel-6; 4.5 mg/kg, 46 day): 19.6 ± 17.5% | V (tumor volume) M + m (human melanoma Mel-6; 4.5 mg/kg, 53 day): 1550.0 + 780.0 | percent change in tumor volume Vt/Vt−1 (human melanoma Mel-6; 4.5 mg/kg, 53 day): 4.2 + 22.5% | delay in maximum tumor mass gain in comparison with the control (human melanoma Mel-6; in vivo): 7 days | Terms of death (100 + 15 mg/kg): no | Total leukocyte number (100 + 15 mg/kg, day 0): 11.50 ± 2.80 thousand in mm^3 | Total leukocyte number (100 + 15 mg/kg, day 3): 4.04 ± 0.44 thousand in mm^3 | Total leukocyte number (100 + 15 mg/kg, day 5): 10.40 ± 1.59 thousand in mm^3 | Total leukocyte number (100 + 15 mg/kg, day 7): 14.80 ± 1.76 thousand in mm^3 | Total leukocyte number (100 + 15 mg/kg, day 21): 11.80 ± 1.34 thousand in mm^3 | Terms of death (200 + 30 mg/kg): 10 | Total leukocyte number (200 + 30 mg/kg, day 3): 3.10 ± 0.70 thousand in mm^3 | Total leukocyte number (200 + 30 mg/kg, day 5): 12.80 ± 1.37 thousand in mm^3 | Total leukocyte number (200 + 30 mg/kg, day 7): 15.30 ± 1.26 thousand in mm^3 | Total leukocyte number (200 + 30 mg/kg, day 21): 12.30 ± 0.89 thousand in mm^3 | Total leukocyte number (cytostatic doses 200 + 30 mg/kg (Dicarbamine group: 0.5 mg/kg daily 20 days), day 0): 11.50 ± 2.80 thousand in mm^3 | cells with apoptosis signs in bone marrow puncture biopsies [1]: rarely observed | Cellularity of bone marrow (number of cells) ([2]; CPH 200 mg/kg (Dicarbamine group: 0.5 mg/kg 5 days prior and 5 days after), day 3): 14.5 ± 3.43 millions | Cellularity of bone marrow (number of cells) ([2]; day 5 after CPH): 21.55 ± 1.92 millions | Cellularity of bone marrow (number of cells) ([2]; day 7 after CPH): 32.35 ± 3.57 millions | Cellularity of bone marrow (number of cells) ([2]; day 10 after CPH): 33.8 ± 3.85 millions | Cellularity of bone marrow (number of cells) ([2]; day 13 after CPH): 32.6 ± 5.22 millions | Cellularity of bone marrow (number of cells) ([2]; day 17 after CPH): 28.25 ± 3.02 millions | Cellularity of bone marrow (number of cells) ([2]; day 21 after CPH): 30.4 ± 2.75 millions
